Experimental data taken from patent publication US5811391A, “Cyclic CS-1 peptidomimetics, compositions and methods of using same” (Cytel Corporation, priority 1995, dated 1998).
Positions of bridges follow the written chain, without caps; N, C: chain ends. Non-standard residues stand in square brackets, D forms with d. Residues, ends and D or L forms follow the SMILES beside them. *: point of attachment. Pen = CC(C)(S)[C@H](N)C(=O)O; PhAc = O=C(Cc1ccccc1)*

Biological target: VLA-4 (Homo sapiens, UniProt P05556+P13612)
Sequence (P13612 34-1032): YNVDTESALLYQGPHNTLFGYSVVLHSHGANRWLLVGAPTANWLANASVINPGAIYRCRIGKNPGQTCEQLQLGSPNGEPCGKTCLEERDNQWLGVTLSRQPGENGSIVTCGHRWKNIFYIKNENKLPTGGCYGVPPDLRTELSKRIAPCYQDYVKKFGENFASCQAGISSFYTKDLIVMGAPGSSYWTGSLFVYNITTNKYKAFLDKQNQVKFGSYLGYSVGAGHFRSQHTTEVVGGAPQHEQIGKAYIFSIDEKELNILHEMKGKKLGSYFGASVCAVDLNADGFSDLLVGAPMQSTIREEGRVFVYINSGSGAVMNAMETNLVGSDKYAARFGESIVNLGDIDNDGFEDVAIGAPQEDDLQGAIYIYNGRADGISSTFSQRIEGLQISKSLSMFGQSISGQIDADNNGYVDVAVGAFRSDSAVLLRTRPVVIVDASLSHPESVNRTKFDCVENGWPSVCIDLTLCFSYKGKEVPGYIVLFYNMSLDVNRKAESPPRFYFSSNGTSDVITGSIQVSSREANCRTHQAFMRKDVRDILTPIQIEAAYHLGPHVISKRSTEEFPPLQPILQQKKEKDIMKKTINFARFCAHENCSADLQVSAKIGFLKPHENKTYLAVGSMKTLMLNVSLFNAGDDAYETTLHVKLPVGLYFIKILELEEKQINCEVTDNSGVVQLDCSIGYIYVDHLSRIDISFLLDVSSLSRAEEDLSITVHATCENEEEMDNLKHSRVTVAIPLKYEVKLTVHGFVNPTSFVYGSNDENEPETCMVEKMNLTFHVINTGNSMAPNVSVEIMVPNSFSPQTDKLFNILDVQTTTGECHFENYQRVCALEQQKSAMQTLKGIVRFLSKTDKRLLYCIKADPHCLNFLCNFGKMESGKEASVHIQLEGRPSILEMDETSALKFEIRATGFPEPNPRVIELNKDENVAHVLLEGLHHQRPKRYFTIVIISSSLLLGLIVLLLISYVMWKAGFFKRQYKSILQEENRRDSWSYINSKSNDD
Sequence (P05556 21-798): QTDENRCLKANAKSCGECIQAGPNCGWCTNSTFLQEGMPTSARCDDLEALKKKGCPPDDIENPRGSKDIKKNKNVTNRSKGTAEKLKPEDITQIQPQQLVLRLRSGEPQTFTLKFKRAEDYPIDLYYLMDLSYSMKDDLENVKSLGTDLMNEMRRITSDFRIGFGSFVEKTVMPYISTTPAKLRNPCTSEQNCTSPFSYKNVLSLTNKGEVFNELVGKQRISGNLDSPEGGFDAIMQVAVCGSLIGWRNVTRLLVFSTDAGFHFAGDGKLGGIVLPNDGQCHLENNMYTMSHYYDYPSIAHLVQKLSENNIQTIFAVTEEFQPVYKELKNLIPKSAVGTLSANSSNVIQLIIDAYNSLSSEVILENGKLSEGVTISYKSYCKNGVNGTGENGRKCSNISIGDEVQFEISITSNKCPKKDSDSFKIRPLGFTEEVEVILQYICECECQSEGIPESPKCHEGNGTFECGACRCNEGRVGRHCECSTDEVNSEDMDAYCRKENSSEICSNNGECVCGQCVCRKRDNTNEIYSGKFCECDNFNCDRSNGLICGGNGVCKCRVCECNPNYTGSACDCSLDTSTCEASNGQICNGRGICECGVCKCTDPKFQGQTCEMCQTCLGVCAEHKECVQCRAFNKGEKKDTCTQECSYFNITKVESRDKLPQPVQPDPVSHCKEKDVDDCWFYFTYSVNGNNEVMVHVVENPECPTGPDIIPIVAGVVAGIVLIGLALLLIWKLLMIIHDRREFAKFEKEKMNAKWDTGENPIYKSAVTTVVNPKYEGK
Experiment: In vitro binding assay: 51Cr-labeled Jurkat cells to solid phase-bound CS-1 peptide (SEQ ID NO:5)
Format: cell-based
Design: inflammatory cells that contain the VLA-4 receptor [Jurkat cells; host or cells: Jurkat cells (human T lymphoblastic line)
Conditions: for Relative Potency: CS-1; for Potency in inhibiting Jurkat cell binding to CS-1 relative to standard 10-mer of SEQ ID NO:6: times/fold more potent than SEQ ID NO:6
Experimental: Binding inhibition is measured here as a concentration of peptide that inhibits one-half the binding between a standard number of Jurkat cells and a standard amount of CS-1 peptide bound to the surface of a microtiter plate well. Those concentrations are conveniently expressed as IC50 values, smaller numbers indicating a lower concentration required to inhibit 50 percent binding and therefore greater potency. Further specifics of this assay are provided hereinafter.
Jurkat cells (ATCC TIB 152), a human T lymphoblastic line, labeled with ^51 chromium were used to assay in vitro binding inhibition provided by various peptides discussed herein.
The plates were prepared as follows: The 25-mer CS-1 peptide (SEQ ID NO:5) dissolved at 0.5-1 μg/ml in a buffer of 0.1M NaHCO3 at pH 9.5 that also contained 10 μg/ml of bovine serum albumin (BSA) or a conjugate of the CS-1 peptide linked to ovalbumin (CS-1-OVA) dissolved at 1-2.5 μg/ml in the same buffer was used as the substrate. Each well of the microtiter plates was coated with 50 μl of substrate or buffer alone for controls. The wells were permitted to dry out completely and were then rinsed twice with PBS at pH 7.4. Non-specific binding sites of each well were then blocked using 200 μl per well of RPMI/1 percent BSA for two hours at room temperature. Both solid phase-affixed substrates provided similar results.
Jurkat cells (3-5×10^6 cells) were placed into a 15 ml FALCON™ round-bottom tube with a cap. The tube was centrifuged, and the extra medium was then removed.
Two hundred microliters of a ^51 Cr labeling solution were added to the centrifuged cells and maintained in contact with the cells for 90-120 minutes in a warm room. This procedure typically provides about 50,000-100,000 cpm/well with about 80-100 percent cell viability. Longer contact times provide a greater amount of labeling but lower cell viability.
The labeled cells were washed with (i) complete medium, (ii) 1mM EDTA/PBS and then (iii) RPM1/1 percent BSA free of serum components. The cells were centrifuged after each washing. The cells were finally resuspended in serum-free RPMI/1 percent BSA at a concentration of 1×10^6 viable cells/ml, which provides a concentration that is diluted by one-half in the assay.
Cyclic inhibitor peptides were prepared as stock solutions at 20 mg/ml in DMSO in 1.5 ml cryogenic screwcap vials, and were stored at -70° C. Using FLOW™ round-bottom or V-bottom microtiter plates, the inhibitor peptides were prepared at twice the assay concentration in RPMI/1 percent BSA at 60 μl/well.
Four initial dilutions were typically used.
The ^51 Cr-labeled cells (1×10^6 cells at 60 μl/well) were then admixed with the diluted cyclic peptide solutions. The admixtures were maintained at room temperature (about 22° C.) for 30 minutes.
One hundred microliters of each inhibitor peptide/cell admixture were transferred to the substrate-coated wells. This was done in triplicate for each dilution. The resulting plates were incubated for 30 minutes at 37° C. and then washed gently three times with RPMI/1 percent BSA at 200 μl/well. Binding was observed microscopically, particularly after the second wash.
The bound cells were then lysed by the addition of a 0.5 percent solution of sodium dodecylsulfate in water at 100 μl/well. The resulting solutions were then processed for counting and calculation of IC50 values following usual procedures. Appropriate positive and negative controls were used with each plate so that the results of separate assays could be normalized and compared.
The potency data of Table 1 and Table 2 are so normalized. The absolute IC50 value for the peptide of SEQ ID NO:7 is 0.3 μM.

[1] = Table 2, normalized IC50 potency relative to standard peptide SEQ ID NO:6, Jurkat cells
[2] = Table 1, normalized IC50 potency relative to standard peptide SEQ ID NO:6 (=1), Jurkat cells

SMILES	Relative Potency [2]	further results
CC(=O)N[C@H]1CSSC[C@@H](C(=O)N2CCC[C@@H]2C(N)=O)NC(=O)[C@H](CC(=O)O)NC(=O)[C@H](CC(C)C)NC1=O (Ac-CLDC[dP]-NH2; disulfide 1-4)	–	Relative Potency [1]: 0
CC(C)C[C@@H]1NC(=O)[C@H](Cc2ccccc2)NC(=O)[C@H](CCC(=O)O)NC(=O)[C@@H]2CCCN2C(=O)CNC(=O)[C@@H](N)CSSC[C@@H](C(N)=O)NC(=O)[C@@H]2CCCN2C(=O)[C@H](Cc2ccccc2)NC(=O)[C@H](CC(=O)O)NC1=O (H-CGPEFLDFPC-NH2; disulfide 1-10)	–	Relative Potency [1]: 6.26
NC(=O)[C@@H]1CSSC[C@H](NC(=O)[C@H](N)Cc2ccccc2)C(=O)N[C@@H](CC(=O)O)C(=O)N[C@@H](Cc2ccccc2)C(=O)N1 (H-[dF]CDFC-NH2; disulfide 2-5)	–	Relative Potency [1]: 3.13
CC1(C)SSC[C@H](C(N)=O)NC(=O)[C@H](Cc2ccccc2)NC(=O)[C@H](CC(=O)O)NC(=O)[C@H]1NC(=O)Cc1ccccc1 [.phi.AcJDFc-NH2] (PhAc-[Pen]DF[dC]-NH2; disulfide 1-4)	4	–
CC(=O)N[C@@H](CC(C)C)C(=O)N[C@@H](CC(=O)O)C(=O)N[C@@H](Cc1ccccc1)C(N)=O [AcLDF-NH2] (Ac-Leu-Asp-Phe-NH2)	< 1	–
CC(=O)N[C@@H](CC(C)C)C(=O)N[C@@H](CC(=O)O)C(=O)N[C@H](C(N)=O)C(C)C [AcLDV-NH2, reference compound] (Ac-Leu-Asp-Val-NH2)	< 1	Potency in inhibiting Jurkat cell binding to CS-1 relative to standard 10-mer of SEQ ID NO:6: about 1
CC(C)C[C@H](N)C(=O)N[C@@H](CC(=O)O)C(=O)N[C@@H](Cc1ccccc1)C(N)=O [LDF-NH2] (H-Leu-Asp-Phe-NH2)	0	–
CC(C)C[C@H](N)C(=O)N[C@@H](CC(=O)O)C(=O)N[C@H](C(N)=O)C(C)C [LDV-NH2, reference compound] (H-Leu-Asp-Val-NH2)	0	Potency in inhibiting Jurkat cell binding to CS-1 relative to standard 10-mer of SEQ ID NO:6: zero

The next lines start with results.

Relative Potency [2]	SMILES	further results
253	CC(C)C[C@@H]1NC(=O)[C@H](Cc2ccccc2)NC(=O)[C@@H](N)CSSC[C@@H](C(N)=O)NC(=O)[C@@H]2CCCN2C(=O)[C@H](Cc2ccccc2)NC(=O)[C@H](CC(=O)O)NC1=O [SEQ ID NO:10, CFLDFPC-N2] (H-CFLDFPC-NH2; disulfide 1-7)	inhibition of binding to CS-1 (in words): excellent inhibitors; IC50 (Jurkat cells, solid phase-bound CS-1, read-out: absolute value of IC50): ~600 nM; Potency in inhibiting Jurkat cell binding to CS-1 relative to standard 10-mer of SEQ ID NO:6: about 253
134	CC(=O)N[C@H]1CSSC[C@@H](C(N)=O)NC(=O)[C@@H]2CCCN2C(=O)[C@H](Cc2ccccc2)NC(=O)[C@H](CC(=O)O)NC(=O)[C@H](CC(C)C)NC(=O)[C@H](Cc2ccccc2)NC1=O [SEQ ID NO:11, AcCFLDFPC-NH2] (Ac-CFLDFPC-NH2; disulfide 1-7)	–
131	NC(=O)[C@@H]1CSSC[C@H](NC(=O)[C@@H](N)Cc2ccccc2)C(=O)N[C@@H](CC(=O)O)C(=O)N[C@@H](Cc2ccccc2)C(=O)N2CCC[C@H]2C(=O)N1 [SEQ ID NO:12, FCDFPC-NH2] (H-FCDFPC-NH2; disulfide 2-6)	–
94	CC1(C)SSC[C@@H](C(N)=O)NC(=O)[C@H](Cc2ccccc2)NC(=O)[C@H](CC(=O)O)NC(=O)[C@H]1NC(=O)Cc1ccccc1 [SEQ ID NO:14, .phi.AcJDFC-NH2] (PhAc-[Pen]DFC-NH2; disulfide 1-4)	–
81	CC(C)C[C@@H]1NC(=O)[C@H](Cc2ccccc2)NC(=O)[C@@H](N)CSSC[C@@H](C(N)=O)NC(=O)[C@H]([C@@H](C)O)NC(=O)[C@H](CO)NC(=O)[C@@H]2CCCN2C(=O)[C@H](Cc2ccccc2)NC(=O)[C@H](CC(=O)O)NC1=O [SEQ ID NO:15, CFLDFPSTC-NH2] (H-CFLDFPSTC-NH2; disulfide 1-9)	–
56	CC(C)C[C@@H]1NC(=O)[C@H](Cc2ccccc2)NC(=O)[C@H](CCC(=O)O)NC(=O)[C@@H]2CCCN2C(=O)[C@@H](N)CSSC[C@@H](C(N)=O)NC(=O)[C@@H]2CCCN2C(=O)[C@H](Cc2ccccc2)NC(=O)[C@H](CC(=O)O)NC1=O [SEQ ID NO:16, CPEFLDFPC-NH2] (H-CPEFLDFPC-NH2; disulfide 1-9)	–
